Assay results taken from PubChem BioAssay (NCI).
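A five-concentration, 48-hour dose response in 96-well plates underlies each endpoint, interpolated linearly between surrounding concentrations. GI50 marks 50% less growth. TGI marks complete inhibition of growth.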

Tests used:
Experiment in all cases: inhibition of tumour cell growth, NCI panel, 48 h
CCRF-CEM leukemia = tested on: CCRF-CEM leukemia
COLO 205 colon = tested on: COLO 205 colon
HCC-2998 colon = tested on: HCC-2998 colon
HOP-62 NSCLC = tested on: HOP-62 NSCLC
KM12 colon = tested on: KM12 colon
OVCAR-8 ovarian = tested on: OVCAR-8 ovarian
RPMI-8226 leukemia = tested on: RPMI-8226 leukemia
SF-268 CNS = tested on: SF-268 CNS
SK-MEL-28 melanoma = tested on: SK-MEL-28 melanoma
SK-MEL-5 melanoma = tested on: SK-MEL-5 melanoma

CCCCCCCCCCCCCCN
TGI (CCRF-CEM leukemia): > 100 µM | TGI (COLO 205 colon): > 100 µM | TGI (HCC-2998 colon): > 100 µM | TGI (HOP-62 NSCLC): > 100 µM | TGI (KM12 colon): > 100 µM | TGI (OVCAR-8 ovarian): > 100 µM | TGI (RPMI-8226 leukemia): > 100 µM | TGI (SF-268 CNS): > 100 µM | TGI (SK-MEL-28 melanoma): > 100 µM | TGI (SK-MEL-5 melanoma): > 100 µM

CCCc1c(CC)c(=N)c2ccccc2n1C
GI50 (CCRF-CEM leukemia): > 100 µM | TGI (CCRF-CEM leukemia): > 100 µM | GI50 (COLO 205 colon): > 100 µM | TGI (COLO 205 colon): > 100 µM | GI50 (HCC-2998 colon): > 100 µM | TGI (HCC-2998 colon): > 100 µM | GI50 (HOP-62 NSCLC): > 100 µM | TGI (HOP-62 NSCLC): > 100 µM | GI50 (KM12 colon): 39.3 µM | TGI (KM12 colon): > 100 µM | GI50 (OVCAR-8 ovarian): 48.9 µM | TGI (OVCAR-8 ovarian): > 100 µM | GI50 (RPMI-8226 leukemia): 36.3 µM | TGI (RPMI-8226 leukemia): > 100 µM | GI50 (SF-268 CNS): > 100 µM | TGI (SF-268 CNS): > 100 µM | GI50 (SK-MEL-28 melanoma): 69.2 µM | TGI (SK-MEL-28 melanoma): > 100 µM | GI50 (SK-MEL-5 melanoma): 24.9 µM | TGI (SK-MEL-5 melanoma): > 100 µM

CC1CC#CCOC(=O)CCCC1=O (stereo not given)
TGI (CCRF-CEM leukemia): > 100 µM | TGI (COLO 205 colon): > 100 µM | TGI (HCC-2998 colon): > 100 µM | TGI (HOP-62 NSCLC): > 100 µM | TGI (KM12 colon): > 100 µM | TGI (OVCAR-8 ovarian): > 100 µM | TGI (RPMI-8226 leukemia): > 100 µM | TGI (SF-268 CNS): > 100 µM | TGI (SK-MEL-28 melanoma): > 100 µM | TGI (SK-MEL-5 melanoma): > 100 µM

COc1ccccc1/C=C1\CCC(CCN(C)C)(C2=CCCC2)C1=O (stereo not given)
TGI (CCRF-CEM leukemia): 51.6 µM | TGI (COLO 205 colon): 22.1 µM | TGI (HCC-2998 colon): 31.9 µM | TGI (HOP-62 NSCLC): 34.5 µM | TGI (KM12 colon): 33 µM | TGI (OVCAR-8 ovarian): 34.7 µM | TGI (RPMI-8226 leukemia): 41.3 µM | TGI (SF-268 CNS): 40.1 µM | TGI (SK-MEL-28 melanoma): 32.7 µM | TGI (SK-MEL-5 melanoma): 26.7 µM

O=C(Nc1cccc([N+](=O)[O-])c1)C(=O)C(C(=O)c1ccccc1-c1ccccc1)C1OC(=O)c2ccccc21 (stereo not given)
TGI (CCRF-CEM leukemia): 99 µM | TGI (COLO 205 colon): 38.1 µM | TGI (HCC-2998 colon): 30.5 µM | TGI (HOP-62 NSCLC): 33.9 µM | TGI (KM12 colon): 44.2 µM | TGI (OVCAR-8 ovarian): 71 µM | TGI (RPMI-8226 leukemia): 60.3 µM | TGI (SF-268 CNS): 75.8 µM | TGI (SK-MEL-28 melanoma): 67.6 µM | TGI (SK-MEL-5 melanoma): 30.7 µM

O=[N+]([O-])c1ccc(S(=O)Cc2ccccc2)c([N+](=O)[O-])c1 (stereo not given)
GI50 (CCRF-CEM leukemia): 0.739 µM | TGI (CCRF-CEM leukemia): 3 µM | GI50 (COLO 205 colon): 1.68 µM | TGI (COLO 205 colon): 3.05 µM | GI50 (HCC-2998 colon): 16.6 µM | TGI (HCC-2998 colon): 30.2 µM | GI50 (HOP-62 NSCLC): 11.6 µM | TGI (HOP-62 NSCLC): 23.8 µM | GI50 (KM12 colon): 15.6 µM | TGI (KM12 colon): 29.4 µM | GI50 (OVCAR-8 ovarian): 3.02 µM | TGI (OVCAR-8 ovarian): 10.5 µM | GI50 (RPMI-8226 leukemia): 1.89 µM | TGI (RPMI-8226 leukemia): 4.46 µM | GI50 (SF-268 CNS): 13.4 µM | TGI (SF-268 CNS): 26.6 µM | GI50 (SK-MEL-28 melanoma): 1.89 µM | TGI (SK-MEL-28 melanoma): 4.13 µM | GI50 (SK-MEL-5 melanoma): 9.08 µM | TGI (SK-MEL-5 melanoma): 21.1 µM

O=C1c2ccc([N+](=O)[O-])cc2-c2c1c1ccccc1c(=O)n2CCCNCCCNCCCn1c2c(c3ccc([N+](=O)[O-])cc3c1=O)C(=O)c1ccccc1-2
GI50 (CCRF-CEM leukemia): 1.77 µM | TGI (CCRF-CEM leukemia): 5.62 µM | GI50 (COLO 205 colon): 1.33 µM | TGI (COLO 205 colon): 6.83 µM | GI50 (HCC-2998 colon): 3.08 µM | TGI (HCC-2998 colon): 9.77 µM | GI50 (HOP-62 NSCLC): 1.85 µM | TGI (HOP-62 NSCLC): 12.4 µM | GI50 (KM12 colon): 1.53 µM | TGI (KM12 colon): 4.31 µM | GI50 (OVCAR-8 ovarian): 0.31 µM | TGI (OVCAR-8 ovarian): 2.32 µM | GI50 (RPMI-8226 leukemia): 0.258 µM | TGI (RPMI-8226 leukemia): 0.82 µM | GI50 (SF-268 CNS): 0.988 µM | TGI (SF-268 CNS): 12.8 µM | GI50 (SK-MEL-28 melanoma): 3.83 µM | TGI (SK-MEL-28 melanoma): 15.9 µM | GI50 (SK-MEL-5 melanoma): 3.07 µM | TGI (SK-MEL-5 melanoma): 20.9 µM

C=C1SC(=Nc2c(C)cc(C)cc2C)N(C(=O)c2sc3ccccc3c2Cl)C12CCCCC2
GI50 (CCRF-CEM leukemia): 62.4 µM | TGI (CCRF-CEM leukemia): > 100 µM | GI50 (COLO 205 colon): > 100 µM | TGI (COLO 205 colon): > 100 µM | GI50 (HCC-2998 colon): 44.7 µM | TGI (HCC-2998 colon): > 100 µM | GI50 (HOP-62 NSCLC): > 100 µM | TGI (HOP-62 NSCLC): > 100 µM | GI50 (KM12 colon): 54.6 µM | TGI (KM12 colon): > 100 µM | GI50 (OVCAR-8 ovarian): > 100 µM | TGI (OVCAR-8 ovarian): > 100 µM | GI50 (RPMI-8226 leukemia): 21.6 µM | TGI (RPMI-8226 leukemia): > 100 µM | GI50 (SF-268 CNS): > 100 µM | TGI (SF-268 CNS): > 100 µM | GI50 (SK-MEL-28 melanoma): > 100 µM | TGI (SK-MEL-28 melanoma): > 100 µM | GI50 (SK-MEL-5 melanoma): > 100 µM | TGI (SK-MEL-5 melanoma): > 100 µM
